Experimental findings from patent US20260347364A1, “PYRAZOLO[4,3-F]QUINAZOLINE DERIVATIVES AS MODULATORS OF G12D MUTANT KRAS USEFUL FOR THE TREATMENT OF CANCER” (JAZZ PHARMACEUTICALS IRELAND LTD., priority 2023, published 2026) are described below.

One test has as its target T1, KRAS G12D (Homo sapiens, UniProt P01116, G12D).
T1 construct: aa1-188 KRAS WT, HRAS WT, NRAS WT, or KRAS containing the G12D
In words: HTRF nucleotide exchange assay, KRAS G12D. It is filed as biochemical. As to conditions: class symbols; for IC50: HTRF nucleotide exchange assay (NEA).

The next test deals with T2, KRAS WT (Homo sapiens, UniProt P01116).
T2 construct: aa1-188 KRAS WT
The test can be described thus: HTRF nucleotide exchange assay, KRAS WT. It is filed as biochemical. As to conditions: class symbols; for IC50: HTRF nucleotide exchange assay (NEA).

Take `C=Cc1c(F)ccc2cc(O)cc(-c3c(C)c4nc(OC[C@@]56CCCN5C[C@H](F)C6)nc(N5CCCn6nc(C(=O)N(C)C)cc6C5)c4c4cn(C)nc34)c12` [Example 98, 5-[4-(7-fluoro-3-hydroxy-8-vinyl-1-naphthyl)-2,5-dimethyl-7-[[(2R,8S)-2-fluoro-1,2,3,5,6,7-hexahydropyrrolizin-8-yl]methoxy]pyrazolo[4,3-f]quinazolin-9-yl]-N,N-dimethyl-4,6,7,8-tetrahydropyrazolo[1,5-a][1,4]diazepine-2-carboxamide]: the IC50 against KRAS G12D and at KRAS WT was at most 10 nM each time.
On to `CCc1c(F)ccc2cc(O)cc(-c3c(F)c4nc(OC[C@@]56CCCN5C[C@H](F)C6)nc(N5CC6CCC(C5)N6)c4c4cn(C)nc34)c12` [Example 99, 4-[9-(3,8-diazabicyclo[3.2.1]octan-3-yl)-5-fluoro-2-methyl-7-[[(2R,8S)-2-fluoro-1,2,3,5,6,7-hexahydropyrrolizin-8-yl]methoxy]pyrazolo[4,3-f]quinazolin-4-yl]-5-ethyl-6-fluoro-naphthalen-2-ol], for which the IC50 at KRAS G12D and at KRAS WT was at most 10 nM throughout.
Turning to `CCc1c(F)ccc2cc(O)cc(-c3c(F)c4nc(OC[C@@]56CCCN5C[C@H](F)C6)nc(N5CCCC(C)(O)C5)c4c4cn(C)nc34)c12` (stereo partly drawn) [Example 100, (3R)-1-[4-bromo-5-fluoro-2-methyl-7-[[(2R,8S)-2-fluoro-1,2,3,5,6,7-hexahydropyrrolizin-8-yl]methoxy]pyrazolo[4,3-f]quinazolin-9-yl]-3-methyl-piperidin-3-ol], the IC50 at KRAS G12D and against KRAS WT was at most 10 nM in each case.
With `Cc1c(-c2ccc(F)c3sc(N)c(C#N)c23)c2nn(C)cc2c2c(N3CCCn4nc(C(=O)N(C)C)cc4C3)nc(OC[C@@]34CCCN3C[C@H](F)C4)nc12` [Example 101, 5-[4-(2-amino-3-cyano-7-fluoro-benzothiophen-4-yl)-7-[[(2R,8S)-2-fluoro-1,2,3,5,6,7-hexahydropyrrolizin-8-yl]methoxy]-2,5-dimethyl-pyrazolo[4,3-f]quinazolin-9-yl]-N,N-dimethyl-4,6,7,8-tetrahydropyrazolo[1,5-a][1,4]diazepine-2-carboxamide], the IC50 on KRAS G12D and against KRAS WT was at most 10 nM in each case.
`CCc1c(F)ccc2cc(O)cc(-c3cc4nc(OC[C@@]56CCCN5C[C@H](F)C6)nc(N5CCCn6nc(CN(C)C)cc6C5)c4c4cn(C)nc34)c12` [Example 102, 4-[9-[2-[(dimethylamino)methyl]-4,6,7,8-tetrahydropyrazolo[1,5-a][1,4]diazepin-5-yl]-2-methyl-7-[[(2R,8S)-2-fluoro-1,2,3,5,6,7-hexahydropyrrolizin-8-yl]methoxy]pyrazolo[4,3-f]quinazolin-4-yl]-5-ethyl-6-fluoro-naphthalen-2-ol]: the IC50 is at most 10 nM at KRAS G12D and 10 to 100 nM against KRAS WT.
`CCc1c(F)ccc2cc(O)cc(-c3cc4nc(OC[C@@]56CCCN5C[C@H](F)C6)nc(N5CCCn6nc(C(=O)N(C)C)c(F)c6C5)c4c4cn(C)nc34)c12` [Example 103]: the IC50 against KRAS G12D and at KRAS WT was at most 10 nM throughout.
As to `CCc1c(F)ccc2cc(Cl)cc(-c3cc4nc(OC[C@@]56CCCN5C[C@H](F)C6)nc(N5CCCn6nc(C(=O)N(C)C)cc6C5)c4c4cn(C)nc34)c12` [Example 104, 5-[4-(3-chloro-8-ethyl-7-fluoro-1-naphthyl)-2-methyl-7-[[(2R,8S)-2-fluoro-1,2,3,5,6,7-hexahydropyrrolizin-8-yl]methoxy]pyrazolo[4,3-f]quinazolin-9-yl]-N,N-dimethyl-4,6,7,8-tetrahydropyrazolo[1,5-a][1,4]diazepine-2-carboxamide], the IC50 is 10 to 100 nM against KRAS G12D and 100 to 10000 nM against KRAS WT.
`Cn1cc2c(n1)c(-c1ncc(F)c3sc(N)c(C#N)c13)cc1nc(OC[C@@]34CCCN3C[C@H](F)C4)nc(N3CCC[C@@](C)(O)C3)c12` [Example 106, 2-amino-7-fluoro-4-[2-methyl-7-[[(2R,8S)-2-fluoro-1,2,3,5,6,7-hexahydropyrrolizin-8-yl]methoxy]-9-[(3R)-3-hydroxy-3-methyl-1-piperidyl]pyrazolo[4,3-f]quinazolin-4-yl]thieno[3,2-c]pyridine-3-carbonitrile]: the “KRAS^G12D NEA” value at KRAS G12D is “D (<49% inhibition at 10 μM)”. In addition, at KRAS WT, the “KRAS^WT NEA” value is “D (<49% inhibition at 10 μM)”.
With `Cn1cc2c(n1)c(-c1ncc(F)c3sc(N)c(C#N)c13)cc1nc(OC[C@@]34CCCN3C[C@H](F)C4)nc(N3CCOCC(C)(O)C3)c12` (stereo partly drawn) [Example 107, 2-amino-7-fluoro-4-[7-[[(2R,8S)-2-fluoro-1,2,3,5,6,7-hexahydropyrrolizin-8-yl]methoxy]-9-(6-hydroxy-6-methyl-1,4-oxazepan-4-yl)-2-methyl-pyrazolo[4,3-f]quinazolin-4-yl]thieno[3,2-c]pyridine-3-carbonitrile], at KRAS G12D, the “KRAS^G12D NEA” value is “D (<49% inhibition at 10 μM)”. Moreover, the “KRAS^WT NEA” value at KRAS WT is listed as “D (<49% inhibition at 10 μM)”.
As to `Cc1c(-c2ncc(F)c3sc(N)c(C#N)c23)c2nn(C)cc2c2c(N3CCOCC(C)(O)C3)nc(OC[C@@]34CCCN3C[C@H](F)C4)nc12` (stereo partly drawn) [Example 108, 2-amino-7-fluoro-4-[7-[[(2R,8S)-2-fluoro-1,2,3,5,6,7-hexahydropyrrolizin-8-yl]methoxy]-9-(6-hydroxy-6-methyl-1,4-oxazepan-4-yl)-2,5-dimethyl-pyrazolo[4,3-f]quinazolin-4-yl]thieno[3,2-c]pyridine-3-carbonitrile], the IC50 on KRAS G12D and at KRAS WT was 100 to 10000 nM throughout.
With `CCc1c(F)ccc2cc(O)cc(-c3c(F)c4nc(OC[C@@]56CCCN5C[C@H](F)C6)nc(N5CCOC[C@@](C)(O)C5)c4c4cn(C)nc34)c12` [Example 109, (6S)-4-[4-(8-ethyl-7-fluoro-3-hydroxy-1-naphthyl)-5-fluoro-2-methyl-7-[[(2R,8S)-2-fluoro-1,2,3,5,6,7-hexahydropyrrolizin-8-yl]methoxy]pyrazolo[4,3-f]quinazolin-9-yl]-6-methyl-1,4-oxazepan-6-ol], the half-inhibitory concentration (IC50) on KRAS G12D and on KRAS WT was at most 10 nM each time.
Take `CCc1c(F)ccc2cc(O)cc(-c3c(F)c4nc(OC[C@@]56CCCN5C[C@H](F)C6)nc(N5CCOC[C@](C)(O)C5)c4c4cn(C)nc34)c12` [Example 110, (6R)-4-[4-(8-ethyl-7-fluoro-3-hydroxy-1-naphthyl)-5-fluoro-2-methyl-7-[[(2R,8S)-2-fluoro-1,2,3,5,6,7-hexahydropyrrolizin-8-yl]methoxy]pyrazolo[4,3-f]quinazolin-9-yl]-6-methyl-1,4-oxazpan-6-ol]: the IC50 against KRAS G12D and against KRAS WT was at most 10 nM in each case.
Regarding `CCc1c(F)ccc2cc(O)cc(-c3c(F)c4nc(OC[C@@]56CCCN5C[C@H](F)C6)nc(N5CCC(C#N)CC5)c4c4cn(C)nc34)c12` [Example 111, 1-[4-(8-ethyl-7-fluoro-3-hydroxy-1-naphthyl)-5-fluoro-2-methyl-7-[[(2R,8S)-2-fluoro-1,2,3,5,6,7-hexahydropyrrolizin-8-yl]methoxy]pyrazolo[4,3-f]quinazolin-9-yl]piperidine-4-carbonitrile], the IC50 was 10 to 100 nM at KRAS G12D and at most 10 nM on KRAS WT.
The matching figures for `CCc1c(F)ccc2cc(O)cc(-c3cc4nc(OC[C@@]56CCCN5C[C@H](F)C6)nc(N5CCCn6nc(C(=O)N(C)C)nc6C5)c4c4cn(C)nc34)c12` [Example 112, 8-[4-(8-ethyl-7-fluoro-3-hydroxy-1-naphthyl)-2-methyl-7-[[(2R,8S)-2-fluoro-1,2,3,5,6,7-hexahydropyrrolizin-8-yl]methoxy]pyrazolo[4,3-f]quinazolin-9-yl]-N,N-dimethyl-5,6,7,9-tetrahydro-[1,2,4]triazolo[1,5-a][1,4]diazepine-2-carboxamide]: at most 10 nM and at most 10 nM.
On the same counts, the results for `CCc1c(F)ccc2cc(O)cc(-c3cc4nc(OC[C@@]56CCCN5C[C@H](F)C6)nc(N5CCC(CO)CC5)c4c4cn(C)nc34)c12` [Example 113, 5-ethyl-6-fluoro-4-[9-[4-(hydroxymethyl)-1-piperidyl]-2-methyl-7-[[(2R,8S)-2-fluoro-1,2,3,5,6,7-hexahydropyrrolizin-8-yl]methoxy]pyrazolo[4,3-f]quinazolin-4-yl]naphthalen-2-ol] are 100 to 10000 nM and 10 to 100 nM.
Consider `CCc1c(F)ccc2cc(O)cc(-c3cc4nc(OC[C@@]56CCCN5C[C@H](F)C6)nc(N5CCCC(CO)C5)c4c4cn(C)nc34)c12` (stereo partly drawn) [Example 114, 5-ethyl-6-fluoro-4-[9-[3-(hydroxymethyl)-1-piperidyl]-2-methyl-7-[[(2R,8S)-2-fluoro-1,2,3,5,6,7-hexahydropyrrolizin-8-yl]methoxy]pyrazolo[4,3-f]quinazolin-4-yl]naphthalen-2-ol], for which the IC50 on KRAS G12D was at most 10 nM; at KRAS WT, 10 to 100 nM.
Take `CCc1c(F)ccc2cc(O)cc(-c3cc4nc(OC[C@@]56CCCN5C[C@H](F)C6)nc(N5CCOC(CO)C5)c4c4cn(C)nc34)c12` (stereo partly drawn) [Example 115, 5-ethyl-6-fluoro-4-[9-[2-(hydroxymethyl)morpholin-4-yl]-2-methyl-7-[[(2R,8S)-2-fluoro-1,2,3,5,6,7-hexahydropyrrolizin-8-yl]methoxy]pyrazolo[4,3-f]quinazolin-4-yl]naphthalen-2-ol]: the IC50 at KRAS G12D and against KRAS WT was at most 10 nM each time.
Take `CCc1c(F)ccc2cc(O)cc(-c3cc4nc(OC[C@@]56CCCN5C[C@H](F)C6)nc(N5CCC(C)(O)C5)c4c4cn(C)nc34)c12` (stereo partly drawn) [Example 116, 1-[4-(8-ethyl-7-fluoro-3-hydroxy-1-naphthyl)-2-methyl-7-[[(2R,8S)-2-fluoro-1,2,3,5,6,7-hexahydropyrrolizin-8-yl]methoxy]pyrazolo[4,3-f]quinazolin-9-yl]-3-methyl-pyrrolidin-3-ol]: the IC50 against KRAS G12D and against KRAS WT was 10 to 100 nM throughout.
On to `CCc1c(F)ccc2cc(O)cc(-c3cc4nc(OC[C@@]56CCCN5C[C@H](F)C6)nc(N5CCC(C)(O)CC5)c4c4cn(C)nc34)c12` [Example 118, 1-[4-(8-ethyl-7-fluoro-3-hydroxy-1-naphthyl)-2-methyl-7-[[(2R,8S)-2-fluoro-1,2,3,5,6,7-hexahydropyrrolizin-8-yl]methoxy]pyrazolo[4,3-f]quinazolin-9-yl]-4-methyl-piperidin-4-ol], for which the IC50 against KRAS G12D and against KRAS WT was 100 to 10000 nM each time.
